The results in this text go back to ChEMBL document CHEMBL4699511, “Cedrol, a Sesquiterpene Alcohol, Enhances the Anticancer Efficacy of Temozolomide in Attenuating Drug Resistance via Regulation of the DNA Damage Response and MGMT Expression” (J Nat Prod, 2020).

The source made the active and inactive calls. The rule behind the calls is not given here.

Data set [1] relates to RG2. The data set can be described thus: Synergistic cytotoxicity against rat RG2 cells assessed as synergistic effect index at 134.9 uM after 48 hrs in presence of 103 uM TMZ by MTT assay. Type of data set: functional. (Tetrazolium dyes change colour on reduction, which living cells bring about.)
For data set [2], the system named is RG2. The data set can be described thus: Synergistic cytotoxicity against rat RG2 cells assessed as synergistic effect index at 134.9 uM after 48 hrs in presence of 206 uM TMZ by MTT assay. The class given is functional.
The test system of data set [3] is RG2. The data set can be described thus: Synergistic cytotoxicity against rat RG2 cells assessed as combination index at 134.9 uM after 48 hrs in presence of 515.1 uM TMZ by MTT assay. Type of data set: functional.
A short description of data set [4]: Synergistic cytotoxicity against rat CTX TNA2 cells assessed as synergistic effect index at 89.9 uM after 48 hrs in presence of 103 uM TMZ by MTT assay. Type of data set: cell-based. Conditions: ctx tna2, 48 h.
Data set [5] is described as follows: Synergistic cytotoxicity against rat CTX TNA2 cells assessed as synergistic effect index at 134.9 uM after 48 hrs in presence of 515.1 uM TMZ by MTT assay. Conditions: ctx tna2, 48 h. Type of data set: cell-based.
Data set [6] in a line: Synergistic cytotoxicity against rat CTX TNA2 cells assessed as combination index at 89.9 uM after 48 hrs in presence of 206 uM TMZ by MTT assay. Conditions: ctx tna2, 48 h. Type of data set: cell-based.
The subject of data set [7] is DBTRG-05MG. Description: Induction of cell cycle arrest in human DBTRG-05MG cells assessed as accumulation at G2/M phase at 112.4 uM after 24 hrs in presence of TMZ by propidium iodide staining based flow cytometric analysis (reference value: 30.08 +/- 0.1%). Type of data set: functional. On the technique in general: A flow cytometer gives signals particle by particle.

Data set [8] has as its system RG2. The data set can be described thus: Induction of cell cycle arrest in rat RG2 cells assessed as accumulation at G0/G1 phase at 112.4 uM after 24 hrs by propidium iodide staining based flow cytometric analysis (reference value: 57.81 +/- 1.9%). The class given is functional.
The subject of data set [9] is RG2. The data set can be described thus: Induction of cell cycle arrest in rat RG2 cells assessed as accumulation at G2/M phase at 112.4 uM after 48 hrs by propidium iodide staining based flow cytometric analysis (reference value: 20.04 +/- 0.55%). The class given is functional.
Data set [10] concerns RG2. Description: Induction of cell cycle arrest in rat RG2 cells assessed as accumulation at G2/M phase at 112.4 uM after 48 hrs in presence of TMZ by propidium iodide staining based flow cytometric analysis (reference value: 20.04 +/- 0.55%). The class given is functional.
The subject of data set [11] is DBTRG-05MG. Description: Induction of cell cycle arrest in human DBTRG-05MG cells assessed as CyclinD1 expression at 112.4 uM after 48 hrs by Western blot analysis (reference value: 1). The class given is functional.
The nature of data set [12]: Effect on ERK expression in human DBTRG-05MG cells at 112.4uM after 48 hrs by Western blot analysis (reference value: 1). Type of data set: functional. For orientation: In western blotting, separated proteins are transferred to a membrane and probed.
The nature of data set [13]: Effect on AKT expression in rat RG2 cells at 112.4uM after 48 hrs in presence of TMZ by Western blot analysis (reference value: 1). The class given is functional.
For data set [14], the system named is RG2. Description: Induction of apoptosis in rat RG2 cells assessed as increase in apoptotic body formation at 112.4 uM after 48 hrs by TUNEL assay. The class given is functional, cell-based.
Data set [15] concerns DBTRG-05MG. Description: Induction of apoptosis in human DBTRG-05MG cells assessed as phosphorylated caspace-9 expression at 112.4 uM after 48 hrs by Western blot analysis (reference value: 1). Type of data set: functional.
The subject of data set [16] is DBTRG-05MG. The data set can be described thus: Induction of apoptosis in human DBTRG-05MG cells assessed as phosphorylated caspace-3 expression at 112.4 uM after 48 hrs by Western blot analysis (reference value: 1). The class given is functional.
Data set [17] concerns RG2. Description: Induction of apoptosis in rat RG2 cells assessed as Bax expression at 112.4 uM after 48 hrs in presence of TMZ by Western blot analysis (reference value: 1). The class given is functional.
The test system of data set [18] is DBTRG-05MG. Description: Induction of DNA damage in human DBTRG-05MG cells at 112.4 uM after 48 hrs in presence of TMZ by p.H2A.X staining based fluorescent immunocytochemistry method. Type of data set: functional, cell-based.
The test system of data set [19] is RG2. The data set can be described thus: Induction of DNA damage in rat RG2 cells assessed as ATR phosphorylation at ser428 residues at 112.4 uM after 48 hrs by Western blot analysis (reference value: 1). Type of data set: functional.
Data set [20] concerns DBTRG-05MG. Description: Induction of DNA damage in human DBTRG-05MG cells assessed as H2A.X phosphorylation at ser139 residues at 112.4 uM after 48 hrs in presence of TMZ by Western blot analysis (reference value: 1). Type of data set: functional.
The nature of data set [21]: Effect of MGMT expression in rat RG2 cells at 112.4 uM after 48 hrs by Western blot analysis (reference value: 1). The class given is functional.
The subject of data set [22] is DBTRG-05MG. The data set can be described thus: Antitumour activity against human DBTRG-05MG cells xenografted in BALB/c nude mouse assessed as increase in survival time at 75 mg/kg, sc for every 2 days for 20 days and measured every 2 days. The class given is functional, organism-based. Conditions: time 20.0 day.
In data set [23] the test system is DBTRG-05MG. The data set can be described thus: Induction of cell cycle arrest in human DBTRG-05MG cells assessed as accumulation at G2/M phase at 206 uM after 48 hrs by propidium iodide staining based flow cytometric analysis (reference value: 30.08 +/- 0.1%). The class given is functional.
Data set [24] deals with RG2. The data set can be described thus: Induction of cell cycle arrest in rat RG2 cells assessed as accumulation at G2/M phase at 206 uM after 6 hrs by propidium iodide staining based flow cytometric analysis (reference value: 20.04 +/- 0.55%). Type of data set: functional.
For data set [25], the system named is RG2. The data set can be described thus: Induction of cell cycle arrest in rat RG2 cells assessed as accumulation at S phase at 206 uM after 24 hrs by propidium iodide staining based flow cytometric analysis (reference value: 20.15 +/- 2.44%). Type of data set: functional.
In data set [26] the test system is DBTRG-05MG. Description: Induction of cell cycle arrest in human DBTRG-05MG cells assessed as CyclinD1 expression at 206 uM after 48 hrs by Western blot analysis (reference value: 1). Type of data set: functional.
Data set [27] in a line: Effect on JNK expression in human DBTRG-05MG cells at 206 uM after 48 hrs by Western blot analysis (reference value: 1). The class given is functional.
The nature of data set [28]: Effect on JNK expression in rat RG2 cells at 206 uM after 48 hrs by Western blot analysis (reference value: 1). Type of data set: functional.
In data set [29] the test system is DBTRG-05MG. The data set can be described thus: Induction of apoptosis in human DBTRG-05MG cells assessed as increase in apoptotic body formation at 206 uM after 48 hrs by TUNEL assay. Type of data set: functional, cell-based.
Data set [30] concerns DBTRG-05MG. Description: Induction of apoptosis in human DBTRG-05MG cells assessed as cleaved caspace-3 expression at 206 uM after 48 hrs by Western blot analysis (reference value: 1). The class given is functional.
Data set [31] concerns DBTRG-05MG. The data set can be described thus: Induction of DNA damage in human DBTRG-05MG cells assessed as ATR phosphorylation at ser428 residues at 206 uM after 48 hrs by Western blot analysis (reference value: 1). The class given is functional.
Data set [32] deals with RG2. Description: Induction of DNA damage in rat RG2 cells assessed as ATR phosphorylation at ser428 residues at 206 uM after 48 hrs by Western blot analysis (reference value: 1). Type of data set: functional.
For data set [33], the system named is RG2. Description: Induction of DNA damage in rat RG2 cells assessed as Chk2 phosphorylation at Thr68 at 206 uM after 48 hrs by Western blot analysis (reference value: 1). The class given is functional.
Data set [34] has as its system DBTRG-05MG. Description: Antitumour activity against human DBTRG-05MG cells xenografted in BALB/c nude mouse assessed as increase in survival time at 5 mg/kg, ip for 5 days and measured every 2 days. The note with it: time 5.0 day. Type of data set: functional, organism-based.

Consider `C[C@@H]1CC[C@H]2C(C)(C)[C@H]3C[C@@]12CC[C@@]3(C)O` [CEDROL], for which the Activity_index worked out at 0.9 in data set [1], 0.91 in data set [2], 0.24 in [4] and 0.7 in data set [5]. Moreover, the CI in data set [3] is 1.02; in data set [6], 1.13. Besides, the Activity in data set [7] was 36.89%; in [8] it was 72.5%; in data set [9], 20.33%; in [10], 35.71%. The “fold change (FC)” value was found to be 0.7 in [11]; 1 in data set [12]; 0.4 in data set [13]; 0.8 in data set [15]; 1.1 in data set [16]; 2.21 in data set [17]. Further, the “fold change (FC)” value in data set [19] is listed as 0.9; in data set [20] it was 1.2; in data set [21], 0.7. The result in data set [14], in [18] and in data set [22] was Active.
In the case of `Cn1nnc2c(C(N)=O)ncn2c1=O` [TEMOZOLOMIDE], the Activity in data set [23] is recorded as 53.64%; in data set [24], 20.81%; in data set [25] it was 15.48%. Also, the “fold change (FC)” value in data set [26] came out at 0.5; in data set [27] it was 0.7; in data set [28] it was 1; in data set [30], 3.3; in data set [31], 1.5; in [32], 0.8. Further, the “fold change (FC)” value in data set [33] amounted to 1.3. Further, the result in data set [29] and in [34] was Active.
